Assay results as given in ChEMBL document CHEMBL1128564, “Inhibition of monoamine oxidase-B by 5H-indeno[1,2-c]pyridazines: biological activities, quantitative structure-activity relationships (QSARs) and 3D-QSARs” (J Med Chem, 1995).
pIC50: −log10 of the molar value.

Key:
[1] = molecular target: T1, Amine oxidase [flavin-containing] A (Rattus norvegicus, UniProt P21396); assay: Ability to inhibit Monoamine oxidase A enzyme
T1 sequence (P21396 whole entry): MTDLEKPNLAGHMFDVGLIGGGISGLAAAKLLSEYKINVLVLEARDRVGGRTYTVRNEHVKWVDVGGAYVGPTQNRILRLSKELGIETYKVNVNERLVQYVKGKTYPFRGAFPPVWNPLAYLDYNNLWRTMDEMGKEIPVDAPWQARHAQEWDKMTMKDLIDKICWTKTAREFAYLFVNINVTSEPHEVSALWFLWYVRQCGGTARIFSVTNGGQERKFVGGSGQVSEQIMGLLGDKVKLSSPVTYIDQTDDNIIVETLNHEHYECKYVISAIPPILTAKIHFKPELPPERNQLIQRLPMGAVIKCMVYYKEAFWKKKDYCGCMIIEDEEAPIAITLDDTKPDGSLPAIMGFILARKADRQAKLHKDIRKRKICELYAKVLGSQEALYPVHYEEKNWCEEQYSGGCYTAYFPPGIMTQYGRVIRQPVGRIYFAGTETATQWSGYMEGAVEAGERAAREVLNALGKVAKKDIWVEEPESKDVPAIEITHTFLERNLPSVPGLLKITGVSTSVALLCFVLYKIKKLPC

[2] = molecular target: T2, Amine oxidase [flavin-containing] B (Rattus norvegicus, UniProt P19643); assay: Ability to inhibit Monoamine oxidase B enzyme
T2 sequence (P19643 whole entry): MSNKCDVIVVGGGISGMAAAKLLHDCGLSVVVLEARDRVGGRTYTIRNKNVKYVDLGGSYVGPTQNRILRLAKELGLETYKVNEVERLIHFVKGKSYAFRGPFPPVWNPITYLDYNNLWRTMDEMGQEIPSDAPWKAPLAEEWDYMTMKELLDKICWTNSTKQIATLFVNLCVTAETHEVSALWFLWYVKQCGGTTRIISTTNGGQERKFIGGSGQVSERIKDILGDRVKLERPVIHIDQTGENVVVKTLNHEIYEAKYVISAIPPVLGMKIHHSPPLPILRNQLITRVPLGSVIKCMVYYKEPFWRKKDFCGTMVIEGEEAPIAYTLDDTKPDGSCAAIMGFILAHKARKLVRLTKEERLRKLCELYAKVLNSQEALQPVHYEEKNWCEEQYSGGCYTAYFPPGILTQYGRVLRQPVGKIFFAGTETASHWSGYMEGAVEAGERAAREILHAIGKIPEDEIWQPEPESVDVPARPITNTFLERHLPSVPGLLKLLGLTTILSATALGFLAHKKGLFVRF

Row | Structure (SMILES) | pIC50 [1] | pIC50 [2]
1 | O=C1c2ccccc2-c2nncc(-c3ccccc3)c21 | 4.46 | 4.03
2 | O=C1c2ccccc2-c2nnc(-c3ccc(Cl)cc3)cc21 | < 5.30 | –
3 | Nc1ccc(-c2cc3c(nn2)-c2ccccc2C3=O)cc1 | 4.43 | 4.61
4 | O=C1c2ccccc2-c2nnc(-c3ccc(Br)cc3)cc21 | 6.00 | –
5 | Cc1cc2c(nn1)-c1ccccc1C2=O | < 4.00 | –
6 | Cc1ccccc1-c1cc2c(nn1)-c1ccccc1C2=O | 5.00 | –
7 | N#Cc1cccc(-c2cc3c(nn2)-c2ccccc2C3=O)c1 | < 5.00 | –
8 | O=C1c2ccccc2-c2nnc(-c3ccc(N4CCCCC4)cc3)cc21 | 6.00 | 6.00
9 | O=C1c2ccccc2-c2nnc3c(c21)CCCC3 | 4.30 | 4.00
10 | Cc1nnc2c(c1-c1ccccc1)C(=O)c1ccccc1-2 | 4.30 | –
11 | O=C1c2ccccc2-c2nnc(-c3ccc(F)cc3)cc21 | 4.51 | –
12 | O=C1c2ccccc2-c2nnc(-c3ccccc3)c(Cc3ccccc3)c21 | < 5.00 | –
13 | Nc1cccc(-c2cc3c(nn2)-c2ccccc2C3=O)c1 | 4.59 | –
14 | O=C1c2ccccc2-c2nnc(-c3ccccc3C(F)(F)F)cc21 | 5.00 | 5.00
15 | O=C1c2ccccc2-c2nncc(Cc3ccccc3)c21 | 4.30 | 4.30
16 | O=C1c2ccccc2-c2nnc(-c3ccc(F)c(F)c3)cc21 | 6.00 | –
17 | O=C1c2ccccc2-c2nnc(-c3cccc(Cl)c3)cc21 | < 5.30 | –
18 | O=C1c2ccccc2-c2nnc(-c3cccc(F)c3)cc21 | 5.00 | –
19 | COc1ccc(-c2cc3c(nn2)-c2ccccc2C3=O)cc1 | 5.00 | –
20 | O=C1c2ccccc2-c2nnc3ccc4ccccc4c3c21 | 5.00 | 5.00
21 | O=C1c2ccccc2-c2nnc(-c3cc(C(F)(F)F)cc(C(F)(F)F)c3)cc21 | 6.00 | < 5.70
22 | O=C1c2ccccc2-c2nnc(-c3ccccc3O)cc21 | 6.00 | < 6.00
23 | O=C(O)c1ccc(-c2cc3c(nn2)-c2ccccc2C3=O)cc1 | 4.00 | 4.00
24 | CCCCOc1ccc(-c2cc3c(nn2)-c2ccccc2C3=O)cc1 | 5.00 | 5.00
25 | CCOC(=O)c1c(-c2ccccc2)nnc2c1C(=O)c1ccccc1-2 | < 4.30 | 5.28
26 | O=C1c2ccccc2-c2nnc(-c3ccc4ccccc4c3)cc21 | 5.00 | –
27 | O=C1c2ccccc2-c2nnc(-c3ccc(C(F)(F)F)cc3)cc21 | 6.00 | –

The remaining lines, values ahead:

Row | pIC50 [1] | pIC50 [2] | Structure (SMILES)
28 | 4.00 | – | O=C1c2ccccc2-c2nnc(-c3ccccc3[N+](=O)[O-])cc21
29 | 6.00 | 6.15 | O=C1c2ccccc2-c2nnc(-c3cc(Cl)cc(Cl)c3)cc21
30 | 4.00 | – | O=C1c2ccccc2-c2nnc(Cc3ccccc3)cc21
31 | 6.00 | 6.00 | O=C1c2ccccc2-c2nnc3ccccc3c21
32 | < 4.70 | 4.74 | O=C1c2ccccc2-c2nnc(-c3ccccc3F)cc21
33 | 4.60 | < 4.60 | O=C1c2ccccc2-c2nnc(-c3ccccn3)cc21
34 | 5.00 | 5.00 | COc1cc(-c2cc3c(nn2)-c2ccccc2C3=O)ccc1O
35 | 4.00 | < 4.00 | Cc1c(-c2ccccc2)nnc2c1C(=O)c1ccccc1-2
36 | < 4.30 | – | O=C1c2ccccc2-c2nnc(-c3ccc(O)cc3)cc21
37 | 4.00 | 4.00 | O=C(O)CCc1cc2c(nn1)-c1ccccc1C2=O
38 | 5.00 | < 5.30 | O=C1c2ccccc2-c2nnc(-c3cccc4ccccc34)cc21
39 | 6.00 | < 6.00 | O=C1c2ccccc2-c2nnc(-c3cccc(O)c3)cc21
40 | < 4.30 | – | O=C1c2ccccc2-c2nnc(-c3ccccc3Cl)cc21
41 | < 5.00 | – | CC(=O)c1ccc(-c2cc3c(nn2)-c2ccccc2C3=O)cc1
42 | 4.30 | 4.30 | O=C1c2ccccc2-c2nnc3c(c21)-c1ccccc1CC3
43 | < 5.00 | < 5.00 | CC(=O)Nc1ccc(-c2cc3c(nn2)-c2ccccc2C3=O)cc1
44 | 4.60 | – | N#Cc1ccc(-c2cc3c(nn2)-c2ccccc2C3=O)cc1
45 | < 4.60 | < 4.60 | O=C1c2ccccc2-c2nnc(-c3cccnc3)cc21
46 | < 4.30 | 4.79 | O=C(c1ccccc1)c1cc2c(nn1)-c1ccccc1C2=O
47 | 5.30 | 5.29 | O=C1c2cc(O)ccc2-c2nnc(-c3cccc(C(F)(F)F)c3)cc21

Row | pIC50 [1] | pIC50 [2] | Structure (SMILES)
48 | 4.60 | – | O=C1c2ccccc2-c2nnc(-c3ccc([N+](=O)[O-])cc3)cc21
49 | 4.00 | 4.08 | Cc1nnc2c(c1Cc1ccccc1)C(=O)c1ccccc1-2
50 | < 6.00 | – | O=C1c2ccccc2-c2nnc(/C=C/c3ccccc3)cc21
51 | – | 4.63 | c1ccc(-c2cc3c(nn2)-c2ccccc2C3)cc1
52 | 6.00 | < 6.30 | O=C1c2ccccc2-c2nnc(-c3cccc([N+](=O)[O-])c3)cc21
53 | 6.00 | 6.00 | COc1ccc(-c2cc3c(nn2)-c2ccccc2C3=O)cc1OC
54 | 5.30 | – | COc1ccc2c(c1)C(=O)c1cc(-c3cccc(C(F)(F)F)c3)nnc1-2
55 | 6.00 | – | O=C1c2ccccc2-c2nnc(-c3cccc(Br)c3)cc21
56 | 5.00 | 5.11 | O=C(c1ccccc1)c1c(-c2ccccc2)nnc2c1C(=O)c1ccccc1-2
57 | 4.60 | < 4.60 | O=C1c2ccccc2-c2nnc(C(F)(F)F)cc21
58 | 6.00 | 6.00 | O=C1c2ccccc2-c2nnc(-c3cccs3)cc21
59 | 4.30 | < 4.30 | COc1ccccc1-c1cc2c(nn1)-c1ccccc1C2=O
60 | 4.30 | – | O=C1c2ccccc2-c2nnc(CCc3ccccc3)cc21
61 | < 4.30 | – | O=C1c2ccccc2-c2nnc(-c3ccco3)cc21
62 | 4.30 | – | COc1cccc(-c2cc3c(nn2)-c2ccccc2C3=O)c1
63 | 4.60 | – | O=C1c2ccccc2-c2nnc(-c3ccccc3)cc21
64 | 4.01 | 4.56 | O=C1c2ccccc2-c2nnccc21
65 | < 5.30 | – | O=C1c2ccccc2-c2nnc(-c3cccc(C(F)(F)F)c3)cc21
66 | 4.30 | 4.30 | O=C1c2ccccc2-c2nnc3c(c21)CCc1ccccc1-3
